According to ChEMBL document CHEMBL1921769, “Synthesis and docking study of 2-phenylaminopyrimidine Abl tyrosine kinase inhibitors” (Bioorg Med Chem Lett, 2011):

target: Tyrosine-protein kinase ABL1 (Homo sapiens, UniProt P00519); experiment: Inhibition of Abl using DAIpYAAPFAKKK phosphopeptide as substrate by MALDI-MS analysis
Sequence (P00519 whole entry): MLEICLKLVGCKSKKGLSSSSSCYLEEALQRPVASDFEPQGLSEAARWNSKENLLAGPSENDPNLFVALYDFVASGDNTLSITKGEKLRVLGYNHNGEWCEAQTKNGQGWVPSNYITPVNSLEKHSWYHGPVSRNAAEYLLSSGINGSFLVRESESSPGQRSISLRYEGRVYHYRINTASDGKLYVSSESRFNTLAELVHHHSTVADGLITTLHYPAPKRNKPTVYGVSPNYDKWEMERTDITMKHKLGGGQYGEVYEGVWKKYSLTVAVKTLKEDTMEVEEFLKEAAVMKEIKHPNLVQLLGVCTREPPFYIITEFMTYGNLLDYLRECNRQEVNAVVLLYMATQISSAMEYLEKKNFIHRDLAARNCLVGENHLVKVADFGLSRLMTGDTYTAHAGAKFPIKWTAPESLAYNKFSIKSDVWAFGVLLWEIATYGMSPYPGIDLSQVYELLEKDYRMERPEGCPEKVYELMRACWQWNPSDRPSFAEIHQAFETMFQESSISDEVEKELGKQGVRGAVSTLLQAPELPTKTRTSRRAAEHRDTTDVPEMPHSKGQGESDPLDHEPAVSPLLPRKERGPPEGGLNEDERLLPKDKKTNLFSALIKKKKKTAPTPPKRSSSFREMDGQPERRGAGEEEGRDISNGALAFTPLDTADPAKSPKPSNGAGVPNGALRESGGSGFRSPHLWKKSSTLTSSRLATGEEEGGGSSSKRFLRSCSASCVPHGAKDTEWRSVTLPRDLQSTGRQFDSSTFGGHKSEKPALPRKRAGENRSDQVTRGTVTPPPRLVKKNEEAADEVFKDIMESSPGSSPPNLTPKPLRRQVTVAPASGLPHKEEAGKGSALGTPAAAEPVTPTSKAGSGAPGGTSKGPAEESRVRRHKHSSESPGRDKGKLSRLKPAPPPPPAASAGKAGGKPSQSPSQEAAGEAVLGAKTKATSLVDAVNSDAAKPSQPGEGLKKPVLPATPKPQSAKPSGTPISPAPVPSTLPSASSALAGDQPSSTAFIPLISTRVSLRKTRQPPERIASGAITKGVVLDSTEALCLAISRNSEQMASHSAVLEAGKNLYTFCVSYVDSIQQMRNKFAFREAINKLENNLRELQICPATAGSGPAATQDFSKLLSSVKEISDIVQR

Row | IC50 [µM] | SMILES
1 | 1.1 | CSc1cccc(C(=O)Nc2ccc(C)c(Nc3nccc(-c4cccnc4)n3)c2)c1
2 | > 25 | Cc1ccc(NC(=O)c2ccc(N)c(N)c2)cc1Nc1nccc(-c2cccnc2)n1
3 | 12.7 | Cc1ccc(NC(=O)c2ccccc2)cc1Nc1nccc(-c2cccnc2)n1
